# Source: ChEMBL document CHEMBL4699540, “Discovery and structure activity relationships of 7-benzyl triazolopyridines as stable, selective, and reversible inhibitors of myeloperoxidase” (Bioorg Med Chem, 2020)
# Experiments:
# Cytochrome P450 1A2 = target: T1, Cytochrome P450 1A2 (Homo sapiens, UniProt P05177); assay: Inhibition of CYP1A2 (unknown origin); type: ADME
# T1 sequence (P05177 whole entry): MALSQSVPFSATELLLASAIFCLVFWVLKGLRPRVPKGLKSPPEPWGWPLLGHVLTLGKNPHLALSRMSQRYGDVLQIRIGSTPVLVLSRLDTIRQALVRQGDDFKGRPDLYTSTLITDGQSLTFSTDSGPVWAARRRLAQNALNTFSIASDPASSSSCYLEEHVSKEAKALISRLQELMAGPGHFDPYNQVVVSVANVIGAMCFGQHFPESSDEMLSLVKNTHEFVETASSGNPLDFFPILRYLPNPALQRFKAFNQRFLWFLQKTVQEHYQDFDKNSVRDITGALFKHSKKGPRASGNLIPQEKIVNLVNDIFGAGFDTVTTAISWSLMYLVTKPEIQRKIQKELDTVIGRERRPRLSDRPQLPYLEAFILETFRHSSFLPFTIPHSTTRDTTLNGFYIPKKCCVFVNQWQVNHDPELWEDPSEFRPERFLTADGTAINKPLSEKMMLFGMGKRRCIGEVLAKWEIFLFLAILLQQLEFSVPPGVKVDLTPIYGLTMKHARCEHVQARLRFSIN
# [1] = Metabolic stability in mouse liver microsomes assessed as compound remaining; type: ADME, Microsome; also: time not given here
# Cytochrome P450 2B6 = target: T2, Cytochrome P450 2B6 (Homo sapiens, UniProt P20813); assay: Inhibition of CYP2B6 (unknown origin); type: ADME
# T2 sequence (P20813 whole entry): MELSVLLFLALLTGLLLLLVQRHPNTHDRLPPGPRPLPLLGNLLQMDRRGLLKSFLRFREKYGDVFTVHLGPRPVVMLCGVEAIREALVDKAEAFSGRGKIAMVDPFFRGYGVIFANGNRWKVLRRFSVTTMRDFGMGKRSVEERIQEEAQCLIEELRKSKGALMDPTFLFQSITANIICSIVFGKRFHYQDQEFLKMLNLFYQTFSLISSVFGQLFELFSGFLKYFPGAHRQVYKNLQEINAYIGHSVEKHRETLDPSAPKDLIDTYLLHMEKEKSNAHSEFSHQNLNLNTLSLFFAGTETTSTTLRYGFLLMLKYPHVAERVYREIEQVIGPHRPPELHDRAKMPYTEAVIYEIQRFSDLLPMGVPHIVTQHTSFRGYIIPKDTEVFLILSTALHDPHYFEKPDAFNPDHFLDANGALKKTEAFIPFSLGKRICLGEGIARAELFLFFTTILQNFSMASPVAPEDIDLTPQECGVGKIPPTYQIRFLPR
# [2] = Binding affinity to human neutrophil MPO delta (1-95) measured for 5 mins by SPR assay
# [3] = Metabolic stability in human liver microsomes assessed as compound remaining; type: ADME, Microsome; also: time not given here
# [4] = Protein binding in human plasma assessed as free fraction; type: ADME, cell-free
# Thyroid peroxidase = target: T3, Thyroid peroxidase (Homo sapiens, UniProt P07202); assay: Inhibition of TPO (unknown origin) using 3-iodo tyrosine as substrate incubated for 10 mins
# T3 sequence (P07202 whole entry): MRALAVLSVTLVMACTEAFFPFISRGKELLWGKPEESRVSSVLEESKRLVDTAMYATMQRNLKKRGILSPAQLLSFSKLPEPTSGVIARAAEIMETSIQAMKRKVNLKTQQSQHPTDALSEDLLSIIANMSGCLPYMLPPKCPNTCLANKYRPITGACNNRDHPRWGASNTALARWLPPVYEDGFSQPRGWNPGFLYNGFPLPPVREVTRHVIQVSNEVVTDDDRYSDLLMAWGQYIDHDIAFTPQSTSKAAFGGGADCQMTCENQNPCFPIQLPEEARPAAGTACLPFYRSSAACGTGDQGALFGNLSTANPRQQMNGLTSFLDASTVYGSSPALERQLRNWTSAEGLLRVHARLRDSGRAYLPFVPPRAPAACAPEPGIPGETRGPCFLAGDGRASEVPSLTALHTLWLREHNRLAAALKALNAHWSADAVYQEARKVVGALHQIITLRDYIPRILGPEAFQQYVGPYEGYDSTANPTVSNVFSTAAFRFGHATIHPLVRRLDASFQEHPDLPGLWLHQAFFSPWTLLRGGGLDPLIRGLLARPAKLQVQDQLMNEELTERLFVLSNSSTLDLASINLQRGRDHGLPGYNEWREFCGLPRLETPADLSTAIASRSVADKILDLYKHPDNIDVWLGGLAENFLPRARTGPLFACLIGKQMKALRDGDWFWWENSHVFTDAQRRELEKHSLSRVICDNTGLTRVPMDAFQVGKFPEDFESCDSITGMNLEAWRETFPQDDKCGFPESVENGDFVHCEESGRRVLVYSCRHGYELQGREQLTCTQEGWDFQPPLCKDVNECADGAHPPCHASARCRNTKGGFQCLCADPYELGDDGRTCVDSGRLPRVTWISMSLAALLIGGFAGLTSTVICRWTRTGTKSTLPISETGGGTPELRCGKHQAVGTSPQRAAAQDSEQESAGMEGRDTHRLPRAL
# Cytochrome P450 2C8 = target: T4, Cytochrome P450 2C8 (Homo sapiens, UniProt P10632); assay: Inhibition of CYP2C8 (unknown origin); type: ADME
# T4 sequence (P10632 whole entry): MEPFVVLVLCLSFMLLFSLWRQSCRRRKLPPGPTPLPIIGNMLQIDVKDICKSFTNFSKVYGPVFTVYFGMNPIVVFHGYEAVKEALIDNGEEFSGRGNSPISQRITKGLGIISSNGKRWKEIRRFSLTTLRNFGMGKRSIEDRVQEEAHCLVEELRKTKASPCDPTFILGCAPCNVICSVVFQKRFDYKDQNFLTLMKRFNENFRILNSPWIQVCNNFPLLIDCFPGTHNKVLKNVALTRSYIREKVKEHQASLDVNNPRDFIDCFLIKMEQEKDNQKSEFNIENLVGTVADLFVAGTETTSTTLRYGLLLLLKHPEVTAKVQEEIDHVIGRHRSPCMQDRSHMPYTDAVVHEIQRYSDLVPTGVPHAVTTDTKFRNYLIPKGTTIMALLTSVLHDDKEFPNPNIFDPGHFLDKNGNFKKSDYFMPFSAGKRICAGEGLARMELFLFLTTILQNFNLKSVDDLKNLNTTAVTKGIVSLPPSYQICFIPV
# [5] = Stability of compound at pH 1 assessed as half life; type: physicochemical; details: buffer
# [6] = Dissociation constant, pKa of the compound; type: physicochemical
# [7] = Permeability of compound at pH 7.4 by PAMPA assay; type: ADME; details: read-out: permeability
# [8] = Half life in CD-1 mouse at 3 mg/kg, po by LC/MS analysis; type: ADME, organism-based; details: in vivo
# [9] = Metabolic stability in rat liver microsomes assessed as compound remaining; type: ADME, Microsome
# [10] = Permeability of compound at pH 5.5 by PAMPA assay; type: ADME; details: read-out: permeability
compound,measurement,setting,value
Nc1cc(Cc2ccccc2)c2nn[nH]c2n1,IC50,Cytochrome P450 1A2,> 10 µM
same,Stabilty,[1],39%
same,IC50,Cytochrome P450 2B6,> 10 µM
same,Kd,[2],0.032 µM
same,Stabilty,[3],98%
same,fraction unbound,[4],0.17
same,IC50,Thyroid peroxidase,2.2 µM
same,IC50,Cytochrome P450 2C8,> 10 µM
same,half-life,[5],> 100 h
same,pKa,[6],7.4
same,Papp,[7],31.3 ×10⁻⁶ cm/s
same,half-life,[8],2 h
same,Stabilty,[9],86%
same,Papp,[10],42.7 ×10⁻⁶ cm/s
